Assay results from patent US6461997B1, “Triazole sulfones having herbicidal activity” (Monsanto Technology LLC, priority 1999, dated 2002).

Key:
[1] = test system: PANMI (wild proso millet); experiment: Pre-emergence herbicidal activity, warm season; type: in vivo, Panicum miliaceum; conditions: GR80 = lowest tested rate (300, 100, 30, 10 g/ha) with 80% or greater inhibition; approx. 14 days after treating; 30/21° C.
Method in brief: (§1)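 Seeds were sown in sterilized, fertilized topsoil, covered, and the soil surface was sprayed with compound in 50:50 acetone/water at 300, 100, 30 and 10 g/ha. Pots were held at 30/21 °C day/night (PANMI, DIGSA) or 18/13 °C (ALOMY, POLCO). GR80 came from percent inhibition versus untreated plants at about 14 days.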

[2] = test system: SORHA (johnsongrass (seedling)); experiment: Pre-emergence herbicidal activity, warm season; type: in vivo, Sorghum halepense; conditions: GR80 = lowest tested rate (300, 100, 30, 10 g/ha) with 80% or greater inhibition; approx. 14 days after treating; 30/21° C.
Method in brief: (§2)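 GR80 values derive from percent inhibition relative to untreated plants, read roughly 14 days after sowing and pre-emergence soil-surface treatment (compound in 50:50 acetone/water; rates typically 10, 30, 100, 300 g/ha). Warm-season weeds grew at 30/21° C day/night, cool-season ones at 18/13° C; an asterisk marks activity without reaching 80% at the highest rate.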

[3] = test system: PANDI (fall panicum); experiment: Pre-emergence herbicidal activity, warm season; type: in vivo, Panicum dichotomiflorum; conditions: GR80 = lowest tested rate (300, 100, 30, 10 g/ha) with 80% or greater inhibition; approx. 14 days after treating; 30/21° C.
Description: (§3) Tables 5 to 8 summarize results of tests conducted as described below to determine the pre-emergence herbicidal activity, in the form of a GR80 value, of illustrative compounds of this invention. […] Compounds of the invention were typically applied at rates of 300, 100, 30, and 10 g/ha. Where herbicidal activity was evident but 80% inhibition was not achieved at the highest rate tested, an asterisk (*) is shown in the following tables.
(§4) The pre-emergence tests were conducted by the following procedure. Topsoil was sieved to pass through a 1.27 cm screen. Fertilizer was added to the topsoil and the mixture was then sterilized by heating. The topsoil mixture was placed in a pot and compacted to a depth of 1.0 to 1.25 cm from the top of the pot. Seeds of each of several monocotyledonous and dicotyledonous annual plant species were placed on top of the soil. Additional soil was subsequently placed over the seeds to level-fill the pot. A known amount of each test compound dissolved or suspended in an appropriate organic solvent was diluted with a 50:50 mix of acetone and water and applied to the surface of the soil. After treatment the plants were placed in a greenhouse where they received 0.64 cm of overhead irrigation. All subsequent watering consisted of a light overhead mist and/or subirrigation as needed for germination and growth. Tables 5 and 6 below relate to warm season plant species which were placed after pre-emergence treatment in a greenhouse with a 30/21° C. day/night temperature regime. Tables 7 and 8 below relates to cool season plant species placed after pre-emergence treatment in a greenhouse or growth chamber with an 18/13° C. day/night temperature regime.
(§5) Approximately 14 days after planting and treating, the plants were observed and herbicidal efficacy recorded as percent inhibition by comparison with untreated plants.
(§6) The plant species usually regarded as weeds which were utilized in the tests are identified in the tables below according to the following legend, in which “d” indicates a dicotyledonous species and “m” a monocotyledonous species. All monocotyledonous species included in the tests herein are grasses.

[4] = test system: AGSST (creeping bentgrass); experiment: Pre-emergence herbicidal activity, cool season; type: in vivo, Agrostis stolonifera; conditions: GR80 = lowest tested rate (300, 100, 30, 10 g/ha) with 80% or greater inhibition; approx. 14 days after treating; 18/13° C.
Method in brief: (§7)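 Seeds sown in sterilised fertilised topsoil received surface-applied compound in 50:50 acetone/water, typically at 300, 100, 30 and 10 g/ha, then greenhouse-grown at 30/21° C (warm-season species) or 18/13° C (cool-season species). Percent inhibition versus untreated plants was scored at about 14 days, giving GR80; an asterisk marks activity short of 80% at the top rate.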

[5] = test system: STEME (common chickweed); experiment: Pre-emergence herbicidal activity, cool season; type: in vivo, Stellaria media; conditions: lowest tested rate with 80% or greater inhibition; rates 300, 100, 30, 10 g/ha; about 14 days
Method in brief: as §7

[6] = test system: LAMPU (purple deadnettle); experiment: Pre-emergence herbicidal activity, cool season; type: in vivo, Lamium purpureum; conditions: lowest tested rate with 80% or greater inhibition; rates 300, 100, 30, 10 g/ha; about 14 days
Method in brief: as §7

[7] = test system: SINAR (wild mustard); experiment: Pre-emergence herbicidal activity, cool season; type: in vivo, Sinapis arvensis; conditions: lowest tested rate with 80% or greater inhibition; rates 300, 100, 30, 10 g/ha; about 14 days
Method in brief: as §7

[8] = test system: POLCO (wild buckwheat); experiment: Pre-emergence herbicidal activity, cool season; type: in vivo, Polygonum convolvulus; conditions: lowest tested rate with 80% or greater inhibition; rates 300, 100, 30, 10 g/ha; about 14 days
Method in brief: as §1

[9] = test system: VERPE (creeping speedwell); experiment: Pre-emergence herbicidal activity, cool season; type: in vivo, Veronica persicaria; conditions: lowest tested rate with 80% or greater inhibition; rates 300, 100, 30, 10 g/ha; about 14 days
Method in brief: as §7

[10] = test system: SETFA (giant foxtail); experiment: Pre-emergence herbicidal activity, warm season; type: in vivo, Setaria faberi; conditions: GR80 = lowest tested rate (300, 100, 30, 10 g/ha) with 80% or greater inhibition; approx. 14 days after treating; 30/21° C.
Method in brief: as §2

[11] = test system: GALAP (catchweed bedstraw); experiment: Pre-emergence herbicidal activity, cool season; type: in vivo, Galium aparine; conditions: lowest tested rate with 80% or greater inhibition; rates 300, 100, 30, 10 g/ha; about 14 days
Method in brief: as §7

[12] = test system: SASKR (russian thistle); experiment: Pre-emergence herbicidal activity, cool season; type: in vivo, Salsola kali; conditions: lowest tested rate with 80% or greater inhibition; rates 300, 100, 30, 10 g/ha; about 14 days
Method in brief: as §7

[13] = test system: SETVI (green foxtail); experiment: Pre-emergence herbicidal activity, cool season; type: in vivo, Setaria viridis; conditions: GR80 = lowest tested rate (300, 100, 30, 10 g/ha) with 80% or greater inhibition; approx. 14 days after treating; 18/13° C.
Method in brief: as §7

[14] = test system: ALOMY (blackgrass); experiment: Pre-emergence herbicidal activity, cool season; type: in vivo, Alopecurus myosuroides; conditions: GR80 = lowest tested rate (300, 100, 30, 10 g/ha) with 80% or greater inhibition; approx. 14 days after treating; 18/13° C.
Method in brief: as §1

[15] = test system: BROTE (downy brome); experiment: Pre-emergence herbicidal activity, cool season; type: in vivo, Bromus tectorum; conditions: GR80 = lowest tested rate (300, 100, 30, 10 g/ha) with 80% or greater inhibition; approx. 14 days after treating; 18/13° C.
Description: as §3, §4, §5, §6

[16] = test system: LOLMG (annual ryegrass); experiment: Pre-emergence herbicidal activity, cool season; type: in vivo, Lolium multiflorum; conditions: GR80 = lowest tested rate (300, 100, 30, 10 g/ha) with 80% or greater inhibition; approx. 14 days after treating; 18/13° C.
Description: as §3, §4, §5, §6

Row | Structure (SMILES) | Pre-emergence activity (GR80) PANMI [1] | Pre-emergence activity (GR80) SORHA [2] | Pre-emergence activity (GR80) PANDI [3] | Pre-emergence activity (GR80) AGSST [4] | Pre-emergence activity GR80, STEME [5] | Pre-emergence activity GR80, LAMPU [6] | Pre-emergence activity GR80, SINAR [7] | Pre-emergence activity GR80, POLCO [8] | Pre-emergence activity GR80, VERPE [9] | Pre-emergence activity (GR80) SETFA [10] | Pre-emergence activity GR80, GALAP [11] | Pre-emergence activity GR80, SASKR [12] | Pre-emergence activity (GR80) SETVI [13] | Pre-emergence activity (GR80) ALOMY [14] | Pre-emergence activity (GR80) BROTE [15] | Pre-emergence activity (GR80) LOLMG [16]
1 | CCN(CC)C(=S)n1cnc(S(=O)(=O)C(F)(F)Br)n1 [Example 46] | 300 g/ha | 300 g/ha | 300 g/ha | 300 g/ha | 300 g/ha | 100 g/ha | [empty] | 300 g/ha | 100 g/ha | 300 g/ha | 300 g/ha | 300 g/ha | 300 g/ha | – | – | –
2 | CON(C)C(=O)n1cnc(S(=O)(=O)C(F)(F)C(F)F)n1 [Example 69] | – | – | – | – | 300 g/ha | [empty] | 30 g/ha | 100 g/ha | 100 g/ha | – | 100 g/ha | [empty] | 100 g/ha | 300 g/ha | 300 g/ha | 300 g/ha
3 | CON(C)C(=O)n1cnc(S(=O)(=O)C(F)(F)C(F)(F)Br)n1 [Example 81] | – | – | – | 100 g/ha | 30 g/ha | 100 g/ha | 30 g/ha | [empty] | 100 g/ha | – | [empty] | 100 g/ha | – | – | 30 g/ha | –
4 | CN(C)C(=O)n1cnc(S(=O)(=O)C(F)(F)Cl)n1 [Example 85] | – | – | – | 100 g/ha | 30 g/ha | 100 g/ha | 30 g/ha | [empty] | 100 g/ha | – | [empty] | 100 g/ha | 300 g/ha | – | 100 g/ha | 100 g/ha
